Among the data in patent US20230062119A1, “USE OF BIOMARKERS IN IDENTIFYING PATIENTS THAT WILL BE RESPONSIVE TO TREATMENT WITH A PRMT5 INHIBITOR” (Merck Sharp & Dohme LLC, priority 2019, published 2023) are EC50 values, retold here.

One experiment deals with T1, Full-length (FL)-PRMT5-MEP50 enzyme complex (Homo sapiens, UniProt O14744).
T1 construct: Full-length (FL)-PRMT5-MEP50 enzyme complex (recombinant proteins from baculovirus-transfected Sf21 cells: FL-PRMT5; MW=73837 kDa and FL-MEP50; MW=38614); made in house; host or cells: baculovirus-transfected Sf21 insect cells
T1 sequence (O14744 whole entry): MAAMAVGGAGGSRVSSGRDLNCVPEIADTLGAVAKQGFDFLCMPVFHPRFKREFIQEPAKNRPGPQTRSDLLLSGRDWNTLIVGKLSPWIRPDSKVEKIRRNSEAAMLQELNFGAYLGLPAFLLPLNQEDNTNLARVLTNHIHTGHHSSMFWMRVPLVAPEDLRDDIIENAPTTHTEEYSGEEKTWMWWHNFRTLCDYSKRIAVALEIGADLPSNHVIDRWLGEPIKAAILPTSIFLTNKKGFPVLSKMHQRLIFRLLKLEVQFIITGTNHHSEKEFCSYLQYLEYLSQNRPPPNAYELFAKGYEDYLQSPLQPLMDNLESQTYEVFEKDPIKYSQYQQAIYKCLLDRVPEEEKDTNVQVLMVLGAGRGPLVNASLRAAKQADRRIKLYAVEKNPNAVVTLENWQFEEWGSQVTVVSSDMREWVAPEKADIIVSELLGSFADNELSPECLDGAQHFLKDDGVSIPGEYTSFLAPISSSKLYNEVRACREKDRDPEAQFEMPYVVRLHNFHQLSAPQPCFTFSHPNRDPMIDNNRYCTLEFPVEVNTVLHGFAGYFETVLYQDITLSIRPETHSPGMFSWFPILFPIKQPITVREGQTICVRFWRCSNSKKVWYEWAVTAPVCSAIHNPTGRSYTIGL
T1 sequence (Q9BQA1 whole entry partner): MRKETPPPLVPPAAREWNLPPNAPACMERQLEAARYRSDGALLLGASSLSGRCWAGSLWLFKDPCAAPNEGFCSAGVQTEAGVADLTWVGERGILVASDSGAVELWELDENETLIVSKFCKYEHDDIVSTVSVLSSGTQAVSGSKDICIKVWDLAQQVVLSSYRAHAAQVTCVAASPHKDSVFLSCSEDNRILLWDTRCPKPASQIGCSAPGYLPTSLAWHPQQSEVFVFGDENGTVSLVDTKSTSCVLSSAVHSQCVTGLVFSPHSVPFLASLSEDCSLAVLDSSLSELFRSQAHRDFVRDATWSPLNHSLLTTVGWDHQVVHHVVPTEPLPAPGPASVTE
Kind of experiment: PRMT5-MEP50 Enzyme Methylation Assay. Format: biochemical. The conditions noted are these: one EC50: 4 parameters single site sigmoidal model; EC50 1: first value of 7 parameters biphasic model; 1.0 nM PRMT5-MEP50, 75 nM biotinylated peptide, 15 μM SAM; read-out: Enzyme Methylation Assay (EC50 or EC50 1). The method, then: PRMT5-MEP50 biochemical assay is a direct measurement of the methylation activity of the enzyme complex on a short peptide substrate derived from the N-terminus of H4 histone. Methylation experiment is performed with recombinant PRMT5-MEP50 protein complex. The assessment of inhibitory effect of small molecules is measured by the effectiveness of the compounds to inhibit this reaction (EC50).
In this assay, the potency (EC50) of each compound was determined from a twenty-point (1:2 serial dilution; top compound concentration of 100000 nM) titration curve using the following outlined procedure. To each well of a white ProxiPlus 384 well-plate, 100 nL of compound (1% DMSO in final assay volume of 10 μL) was dispensed, followed by the addition of 8 μL of 1× assay buffer (50 mM Bicine pH 8.0, 1 mM DTT, 0.004% Tween20, 0.01% BSA) containing 1.25 nM of Full-length (FL)-PRMT5-MEP50 enzyme complex (recombinant proteins from baculovirus-transfected Sf21 cells: FL-PRMT5; MW=[…] and FL-MEP50; MW=38614) and 1 μL of 150 μM S-(5′-Adenosyl)-L-Methionine Chloride (SAM). Plates were sealed and placed in a 37° C. humidified chamber for a 60 minutes pre-incubation with compound. Subsequently, each reaction was initiated by the addition of 1 μL 1× assay buffer containing 750 nM biotinylated H4R3(Mel) peptide. The final reaction in each well of 10 μL consists of 1.0 nM PRMT5-MEP50, 75 nM biotinylated-peptide, and 15 μM SAM. Methylation reactions proceeded for 150 minutes in a sealed plate at 37° C. Reactions were immediately quenched by the addition of 1 μL of 5% formic acid. Plates were then frozen and shipped to SAMDI™ Tech Inc. to determine the percent conversion from H4R3(Mel) to H4R3(Me2). Dose-response curves were generated by plotting percent effect (% product conversion; Y-axis) vs. Log 10 compound concentrations (X-axis). EC50 values were determined by non-linear regression according to models for either sigmoidal (4 parameters) or biphasic (7 parameters) dose-response curves.
`Nc1nc2cc(C[C@@H]3CC[C@@]4(O)[C@@H]3O[C@@H](n3ccc5c(N)nc(Cl)nc53)[C@@H]4O)ccc2cc1F` [Example 48, (2R,3R,3aS,6S,6aR)-2-(4-amino-2-chloro-7H-pyrrolo[2,3-d]pyrimidin-7-yl)-6-[(2-amino-3-fluoroquinolin-7-yl)methyl]hexahydro-3aH-cyclopenta[b]furan-3,3a-diol]: the EC50 is 0.5 nM.

For `Nc1ncnc2c1ccn2[C@@H]1O[C@@H]2[C@@H](Oc3ccc4ccc(NCC(F)(F)F)nc4c3)CC[C@]2(O)[C@H]1O` [Example 57, (2R,3R,3aS,6S,6aR)-2-(4-amino-7H-pyrrolo[2,3-d]pyrimidin-7-yl)-6-((2-((2,2,2-trifluoroethyl)amino)quinolin-7-yl)oxy)hexahydro-3aH-cyclopenta[b]furan-3,3a-diol], the EC50 was found to be 0.7 nM. Take `Cc1nc(N)c2ccn([C@@H]3C[C@@H]4[C@H](Cc5ccc6cc(F)c(N)nc6c5)CC[C@]4(O)[C@H]3O)c2n1` [Example 32, (1S,2R,3aR,4S,6aR)-2-(4-amino-2-methyl-7H-pyrrolo[2,3-d]pyrimidin-7-yl)-4-((2-amino-3-fluoroquinolin-7-yl)methyl)hexahydropentalene-1,6a(1H)-diol 2,2,2-trifluoroacetate]: the 50% effective concentration (EC50) came to 0.4 nM. On to `Cc1ncnc2c1ccn2[C@@H]1C[C@](C)(CCc2ccc3cc4c(nc3c2)NCC4)[C@@H](O)[C@H]1O` [Example 110, (1S,2R,3S,5R)-3-(2-(2,3-dihydro-1H-pyrrolo[2,3-b]quinolin-7-yl)ethyl)-3-methyl-5-(4-methyl-7H-pyrrolo[2,3-d]pyrimidin-7-yl)cyclopentane-1,2-diol], for which the concentration for a half-maximal effect (EC50) was determined as 0.9 nM. Turning to `Cc1ncnc2c1ccn2[C@@H]1O[C@@H]2[C@H](Cc3ccc4cc(Cl)c(N)nc4c3)CC[C@]2(O)[C@H]1O` [Example 122, (2R,3R,3aS,6S,6aR)-6-((2-amino-3-chloroquinolin-7-yl)methyl)-2-(4-methyl-7H-pyrrolo[2,3-d]pyrimidin-7-yl)hexahydro-3aH-cyclopenta[b]furan-3,3a-diol], the concentration for a half-maximal effect (EC50) came to 0.6 nM. As to `Nc1nc2cc(O[C@H]3CC[C@@]4(O)[C@@H]3O[C@@H](n3cc(F)c5c(N)ncnc53)[C@@H]4O)ccc2cc1F` [Example 73, (2R,3R,3aS,6S,6aR)-6-((2-amino-3-fluoroquinolin-7-yl)oxy)-2-(4-amino-5-fluoro-7H-pyrrolo[2,3-d]pyrimidin-7-yl)hexahydro-3aH-cyclopenta[b]furan-3,3a-diol], the concentration giving a half-maximal response (EC50) was 0.4 nM.

Turning to `Nc1nc2cc(C[C@@H]3CC[C@@]4(O)[C@@H]3O[C@@H](n3cc(F)c5c(N)ncnc53)[C@@H]4O)ccc2cc1Br` [Example 108, (2R,3R,3aS,6S,6aR)-6-((2-amino-3-bromoquinolin-7-yl)methyl)-2-(4-amino-5-fluoro-7H-pyrrolo[2,3-d]pyrimidin-7-yl)hexahydro-2H-cyclopenta[b]furan-3,3a-diol], the concentration for a half-maximal effect (EC50) was found to be 0.2 nM. For the compound `C[C@@]1(O)[C@@H](CCc2ccc3cc(Br)c(N)nc3c2)O[C@@H](n2ccc3c(N)ncnc32)[C@@H]1O` [Example 14, (2R,3S,4R,5R)-2-(2-(2-amino-3-bromoquinolin-7-yl)ethyl)-5-(4-amino-7H-pyrrolo[2,3-d]pyrimidin-7-yl)-3-methyltetrahydrofuran-3,4-diol], the EC50 was found to be 1.3 nM.

Turning to `Nc1ncc2c(F)cn([C@@H]3O[C@@H]4[C@@H](Oc5ccc6cc(Br)c(N)nc6c5)CC[C@]4(O)[C@H]3O)c2n1` [Example 130, (2R,3R,3aS,6S,6aR)-6-((2-amino-3-bromoquinolin-7-yl)oxy)-2-(2-amino-5-fluoro-7H-pyrrolo[2,3-d]pyrimidin-7-yl)hexahydro-3aH-cyclopenta[b]furan-3,3a-diol], the EC50 was 0.6 nM. For the compound `CC(C)(O)c1ncnc2c1ccn2[C@@H]1O[C@@H]2[C@@H](Oc3ccc4cc(Br)c(N)nc4c3)CC[C@]2(O)[C@H]1O` [Example 78, (2R,3R,3aS,6S,6aR)-6-[(2-amino-3-bromoquinolin-7-yl)oxy]-2-[4-(2-hydroxypropan-2-yl)-7H-pyrrolo[2,3-d]pyrimidin-7-yl]hexahydro-3aH-cyclopenta[b]furan-3,3a-diol], the concentration for a half-maximal effect (EC50) was 13.3 nM. Regarding `Cc1cn([C@@H]2O[C@@H]3[C@H](Cc4ccc5cc(Br)c(N)nc5c4)OC[C@]3(O)[C@H]2O)c2ncnc(N)c12` [Example 135, (2R,3R,3aS,6S,6aR)-6-((2-amino-3-bromoquinolin-7-yl)methyl)-2-(4-amino-5-methyl-7H-pyrrolo[2,3-d]pyrimidin-7-yl)tetrahydrofuro[3,4-b]furan-3,3a(4H)-diol], the EC50 came to 0.4 nM. The same measure, in the same setting: for `Nc1nc2cc(O[C@H]3CC[C@@]4(O)[C@@H]3O[C@@H](n3ccc5cncnc53)[C@@H]4O)ccc2cc1Br` [Example 85, (2R,3R,3aS,6S,6aR)-6-((2-amino-3-bromoquinolin-7-yl)oxy)-2-(7H-pyrrolo[2,3-d]pyrimidin-7-yl)hexahydro-3aH-cyclopenta[b]furan-3,3a-diol] the value was 1.2 nM. Take `Nc1nc2cc(C[C@@H]3CC[C@@]4(O)[C@@H]3C[C@@H](n3cc(F)c5c(N)ncnc53)[C@@H]4O)cc(F)c2cc1F` [Example 30, (1S,2R,3aR,4S,6aR)-4-((2-amino-3,5-difluoroquinolin-7-yl)methyl)-2-(4-amino-5-fluoro-7H-pyrrolo[2,3-d]pyrimidin-7-yl)hexahydropentalene-1,6a(1H)-diol]: the EC50 turned out to be 0.7 nM. Still for that read-out and setting: for `Cc1nc(C)c2ccn([C@@H]3O[C@@H]4[C@H](Cc5ccc6cc(F)c(N)nc6c5)CC[C@]4(O)[C@H]3O)c2n1` [Example 90, (2R,3R,3aS,6S,6aR)-6-((2-amino-3-fluoroquinolin-7-yl)methyl)-2-(2,4-dimethyl-7H-pyrrolo[2,3-d]pyrimidin-7-yl)hexahydro-3aH-cyclopenta[b]furan-3,3a-diol] the value was 0.9 nM; for `Cc1ncnc2c1ccn2[C@@H]1O[C@@H]2[C@@H](Cc3ccc4cc(Br)c(N)nc4c3)OC[C@]2(O)[C@H]1O` [Example 134, (2R,3R,3aS,6R,6aR)-6-((2-amino-3-bromoquinolin-7-yl)methyl)-2-(4-methyl-7H-pyrrolo[2,3-d]pyrimidin-7-yl)tetrahydrofuro[3,4-b]furan-3,3a(4H)-diol], 3.5 nM. As to `Cc1ncnc2c1ccn2[C@@H]1O[C@@H]2[C@H](Cc3ccc4cc(F)c(N)nc4c3)CC[C@]2(O)[C@H]1O` [Example 123, (2R,3R,3aS,6S,6aR)-6-((2-amino-3-fluoroquinolin-7-yl)methyl)-2-(4-methyl-7H-pyrrolo[2,3-d]pyrimidin-7-yl)hexahydro-3aH-cyclopenta[b]furan-3,3a-diol], the concentration giving a half-maximal response (EC50) was found to be 1 nM. Take `CNc1ncnc2c1c(F)cn2[C@@H]1O[C@@H]2[C@H](Cc3ccc4cc(Br)c(N)nc4c3)CC[C@]2(O)[C@H]1O` [Example 96, (2R,3R,3aS,6S,6aR)-6-((2-amino-3-bromoquinolin-7-yl)methyl)-2-(5-fluoro-4-(methylamino)-7H-pyrrolo[2,3-d]pyrimidin-7-yl)hexahydro-3aH-cyclopenta[b]furan-3,3a-diol]: the EC50 turned out to be 0.8 nM. Same read-out and setting: for `Nc1nc2cc(O[C@H]3CC[C@@]4(O)[C@@H]3O[C@@H](n3cc(F)c5c(N)ncnc53)[C@@H]4O)ccc2cc1Cl` [Example 74, (2R,3R,3aS,6S,6aR)-6-((2-amino-3-chloroquinolin-7-yl)oxy)-2-(4-amino-5-fluoro-7H-pyrrolo[2,3-d]pyrimidin-7-yl)hexahydro-3aH-cyclopenta[b]furan-3,3a-diol] the value was 0.3 nM. Still for that read-out and setting: for `CC(C)c1ncnc2c1ccn2[C@@H]1O[C@@H]2[C@H](Cc3ccc4cc(Br)c(N)nc4c3)CC[C@]2(O)[C@H]1O` [Example 83, (2R,3R,3aS,6S,6aR)-6-((2-amino-3-bromoquinolin-7-yl)methyl)-2-(4-isopropyl-7H-pyrrolo[2,3-d]pyrimidin-7-yl)hexahydro-3aH-cyclopenta[b]furan-3,3a-diol] the value was 1.2 nM; for `C[C@]1(CCc2ccc3cc(Br)c(N)nc3c2)O[C@@H](n2ccc3c(N)ncnc32)[C@H](O)[C@]1(C)O` [Example 4, (2R,3S,4R,5R)-2-(2-(2-amino-3-bromoquinolin-7-yl)ethyl)-5-(4-amino-7H-pyrrolo[2,3-d]pyrimidin-7-yl)-2,3-dimethyltetrahydrofuran-3,4-diol], 2.4 nM.

The same experiment, now with this note: second EC50 of 7 parameters biphasic model; 1.0 nM PRMT5-MEP50, 75 nM biotinylated peptide, 15 μM SAM; read-out: Enzyme Methylation Assay (EC50 2).
On to `Nc1ncnc2c1ccn2[C@@H]1O[C@@H]2[C@@H](Oc3ccc4ccc(NCC(F)(F)F)nc4c3)CC[C@]2(O)[C@H]1O` [Example 57, (2R,3R,3aS,6S,6aR)-2-(4-amino-7H-pyrrolo[2,3-d]pyrimidin-7-yl)-6-((2-((2,2,2-trifluoroethyl)amino)quinolin-7-yl)oxy)hexahydro-3aH-cyclopenta[b]furan-3,3a-diol], for which the concentration giving a half-maximal response (EC50) amounted to 143 nM. For `C[C@@]1(O)[C@@H](CCc2ccc3cc(Br)c(N)nc3c2)O[C@@H](n2ccc3c(N)ncnc32)[C@@H]1O` [Example 14, (2R,3S,4R,5R)-2-(2-(2-amino-3-bromoquinolin-7-yl)ethyl)-5-(4-amino-7H-pyrrolo[2,3-d]pyrimidin-7-yl)-3-methyltetrahydrofuran-3,4-diol], the EC50 was found to be 182 nM. With `Nc1nc2cc(O[C@H]3CC[C@@]4(O)[C@@H]3O[C@@H](n3ccc5cncnc53)[C@@H]4O)ccc2cc1Br` [Example 85, (2R,3R,3aS,6S,6aR)-6-((2-amino-3-bromoquinolin-7-yl)oxy)-2-(7H-pyrrolo[2,3-d]pyrimidin-7-yl)hexahydro-3aH-cyclopenta[b]furan-3,3a-diol], the EC50 is 246 nM. Same read-out and setting: for `C[C@]1(CCc2ccc3cc(Br)c(N)nc3c2)O[C@@H](n2ccc3c(N)ncnc32)[C@H](O)[C@]1(C)O` [Example 4, (2R,3S,4R,5R)-2-(2-(2-amino-3-bromoquinolin-7-yl)ethyl)-5-(4-amino-7H-pyrrolo[2,3-d]pyrimidin-7-yl)-2,3-dimethyltetrahydrofuran-3,4-diol] the value was 288 nM.

In general, EC50 refers to the concentration that produces a half-maximal response.
